For series [1], the system named is Tuj1. The experiment in a line: Tuj1 expression in 3XTg-AD mice (western blotting, immunostaining). Format: in vivo. The note with it: hippocampus and whole brain; s.c. three times a week for two months; vs control and Donepezil, same amount. How it is done: (§1) To test the efficacy of PEP1 on AD, AD transgenic mice (3XTg-AD) were purchased from Jackson Laboratory. Genetic characteristics of the transgenic mice are as follows: B6; 129-Psen1tm1Mpm Tg(APPSwe, tauP301L)1Lfa/Mmjax. […] One week after mice were confirmed as pregnant, new mice were delivered and weaned for 3 weeks. Two weeks later, mature mice were obtained.
(§2) During the preliminary breeding and the entire period of the experiment, a temperature was maintained at 23±2° C. and a relative humidity was maintained at 60±10%, and then the mice were raised under a 12-hour dark/light cycle. Experimental animals were divided into five groups, and each group included 10 animals. The divided experimental groups are as follows. […]
(§3) The PEP1, physiological saline, donepezil and scramble peptide were subcutaneously injected at each concentration three times a week for two months from the age of 12 months, and then two months after the injection, cognitive/memory behavior tests (passive avoidance test and Y maze test) were performed to examine a degree of improvement in cognitive function and memory function. After the brain was extracted to separate the hippocampus, the amounts of amyloid beta in the hippocampus and the whole brain, and the amounts of an amyloid beta oligomer and NFT generated by tau hyperphosphorylation were determined by western blotting and immunostaining. […]
A general note: A western blot detects proteins with antibodies after separation by electrophoresis.

Series [2] relates to NSCs. The experiment in a line: ATP assay. Format: cell-based, rat. As to conditions: 20 μM Aβ25-35 + PEP1. An excerpt:
An ATP concentration was observed using an ATP determination kit and evaluated by an ELISA reader.

In series [3] the test system is NeuN. The experiment in a line: NeuN expression in 3XTg-AD mice (western blotting). As to conditions: hippocampus and whole brain; s.c. three times a week for two months from age 12 months; vs control and Donepezil, same amount. The series is classed as in vivo. How it is done:
as §1, §2, §3

In series [4] the test system is Tau. The experiment in a line: NFT generation (Tau expression) in 3XTg-AD mice (western blotting, immunostaining). Format: in vivo. The note with it: hippocampus and whole brain; vs control and Donepezil. How it is done:
as §1, §2, §3

Series [5] has as its system NSCs. Briefly: Mitochondria cell membrane potential (JC-1). The series is classed as cell-based, rat. As to conditions: 20 μM Aβ25-35 + PEP1 1, 10, 50 μM, 48 hours. How it is done:
NSCs were plated in a 96-well plate at a density of 5×10^5 cells/well. The cells were treated with 20 μM Aβ25-30 and each concentration of PEP1 (1, 10 or 50 μM) at 37° C. for 48 hours.
The mitochondria cell membrane potential was measured using a JC-1 mitochondria cell membrane potential observation kit. The mitochondria cell membrane potential was observed using an ELISA reader. […] By observing dead cells or unhealthy cells at an FITC wavelength, it was confirmed that JC-1 is in a monomer state.

For series [6] the following is noted: numerous clinical trials targeting various diseases; cited from earlier work.

“EARPALLTSRLRFIPK (homo sapiens) [PEP1, hTERT-derived peptide consisting of 16 amino acids, telomerase location [611-626]]”: the Tuj1 result in series [1] is listed as “increased”. The ATP level entry in series [2] was “significantly restored”. In series [3], the NeuN entry is “increased”. For the same sequence, the “expression level of Tau” value in series [4] is given as “decreased”. Besides, the “mitochondria cell membrane potential” value in series [5] is given as “restored the cell membrane potential up to a level in a normal range”. The “toxicity / side effects” value in series [6] is “stable in terms of side effects”.

These data come from patent US20180318383A1, “PEPTIDE HAVING NEURONAL LOSS PREVENTION AND REGENERATION EFFECTS, AND COMPOSITION CONTAINING SAME” (GEMVAX & KAEL CO., LTD., priority 2015, published 2018).
